Results reported in US20260226076A1, “FUSED MULTICYCLIC COMPOUNDS AND THEIR USE AS PARP1 INHIBITORS” (LAEKNA THERAPEUTICS SHANGHAI CO., LTD., priority 2022, published 2026).

Assays:
PARP2 = PARP2 (Homo sapiens, UniProt Q9UGN5); assay: PARP2-FL displacement assay; assay type: binding; settings: 20 nM PARP2, 3 nM PARPi-FL, 4 hours incubation, fluorescence polarization
Method: A potent PARP inhibitor (PARPi-FL, Cat No. 6461, Tocris Bioscience) conjugated to BDY FL fluorophore was adopted to characterize the activity of PARP2 by measuring the displacement of binding of PARPi-FL to PARP2. Compounds to be tested were prepared at a concentration of 1-10 mM, and made a 3-fold serial dilution by 100% DMSO in a polypropylene plate (Bio-One small volume microplate, black, Cat No. 784076, Greiner). 100 nL of test compounds were dispensed into a 384-well polypropylene microplate and added 10 μL of reaction solution including premixed 20 nM PARP2 and 3 nM PARPi-FL. After 4 hours of incubation at room temperature, the fluorescence polarization signal at 480/30 nm excitation and 530/30 nm dual emission was measured by VICTOR Nivo® multimode plate reader (PerkinElmer). All of the measured IC50 values were calculated using four parameters dose-response inhibition model in GraphPad Prism 8.0.2 (La Jolla, California, USA, www.graphpad.com).

PARP1 = PARP1 (Homo sapiens, UniProt P09874); assay: PARP1-DNA enzymatic trapping assay; assay type: biochemical; settings: 10 nM PARP1, 5 nM DNA probe, 2 mM NAD+, fluorescence polarization read at 30 minutes
Sequence of PARP1 (P09874 whole entry): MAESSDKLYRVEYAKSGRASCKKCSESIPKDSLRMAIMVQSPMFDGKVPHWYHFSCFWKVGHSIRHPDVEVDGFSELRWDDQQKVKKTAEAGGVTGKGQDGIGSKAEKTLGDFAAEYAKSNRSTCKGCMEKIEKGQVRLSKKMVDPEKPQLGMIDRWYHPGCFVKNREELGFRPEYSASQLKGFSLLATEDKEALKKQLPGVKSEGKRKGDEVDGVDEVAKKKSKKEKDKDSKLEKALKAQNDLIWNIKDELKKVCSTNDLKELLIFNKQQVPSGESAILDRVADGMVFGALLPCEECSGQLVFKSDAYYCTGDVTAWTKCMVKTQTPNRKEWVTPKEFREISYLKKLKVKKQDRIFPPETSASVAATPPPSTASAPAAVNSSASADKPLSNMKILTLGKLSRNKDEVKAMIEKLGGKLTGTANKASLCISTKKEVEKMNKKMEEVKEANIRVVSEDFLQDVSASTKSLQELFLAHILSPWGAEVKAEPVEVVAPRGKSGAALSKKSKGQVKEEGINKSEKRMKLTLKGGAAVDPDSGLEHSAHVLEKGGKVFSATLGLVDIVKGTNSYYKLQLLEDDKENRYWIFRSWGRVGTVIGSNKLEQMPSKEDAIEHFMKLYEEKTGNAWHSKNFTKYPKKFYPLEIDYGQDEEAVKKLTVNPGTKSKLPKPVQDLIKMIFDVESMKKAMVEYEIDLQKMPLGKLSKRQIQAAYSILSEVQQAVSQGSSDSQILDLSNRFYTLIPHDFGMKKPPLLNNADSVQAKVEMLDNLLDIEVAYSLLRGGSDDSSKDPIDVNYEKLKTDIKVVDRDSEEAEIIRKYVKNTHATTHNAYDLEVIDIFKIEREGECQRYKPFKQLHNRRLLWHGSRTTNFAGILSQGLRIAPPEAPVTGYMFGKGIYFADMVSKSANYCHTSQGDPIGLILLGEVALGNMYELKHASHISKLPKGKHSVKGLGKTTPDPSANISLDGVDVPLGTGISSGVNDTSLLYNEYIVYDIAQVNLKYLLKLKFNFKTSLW
Method: Enzymatic trapping assay is to measure the dissociation process of PARP1 from fluorescein-labeled DNA during the enzymatic activity. Assay was conducted at a total 10 μL of reaction volume, including 10 nM PARP1 and 5 nM DNA probe in the binding buffer (50 mM Tris-HCl pH 8.0, 50 mM NaCl, 1 mM MgCl2, 0.1 mM EDTA, and 0.01% IGEPAL), and was commenced by adding a final concentration of 2 mM NAD+ substrate.
PARP1 Poly-ADP ribosylation (PARylation) inhibitory assay was conducted with compounds dissolved in DMSO at a starting concentration of 5 μM. Dissolved compounds were added to 384-well microplate and premixed with PARPI enzyme and DNA probe for 20 minutes incubation. Enzymatic reactions were started by adding NAD+ to mixture, and each well was read at 30 minutes by microplate reader (VICTOR Nivo®, PerkinElmer) to detect the fluorescence polarization signal at 480 nm excitation/530 nm dual emission.
All measured IC50 values were calculated using four parameters dose-response inhibition model in GraphPad Prism 8.0.2 (La Jolla, California, USA, www.graphpad.com).

MDA-MB-436 cells = assay: Cell proliferation assay (MDA-MB-436); assay type: cell-based; settings: Homo sapiens, MDA-MB-436, 168 h, at least 7 days, Cell-Titer Glo, read-out: MDA-MB-436 anti-proliferation assay
Method: (§1) For PARPi sensitivity, exponentially growing MDA-MB-436 and DLD1 BRCA2^−/− cells were seed in 96 or 384-well plates at very low density with the goal of not splitting for at least 7 days (typically 0.3k-1.2k cells/well). Cells were plated on […] and treated with DMSO or increasing concentrations of PARP1 inhibitors on Day 0. At the end of the experiment, cell viability was estimated using Cell-Titer Glo (Promega).

DLD1 BRCA2−/− cells = assay: Cell proliferation assay (DLD1 BRCA2−/−); assay type: cell-based; settings: Homo sapiens, DLD-1, 168 h, at least 7 days, Cell-Titer Glo, read-out: DLD1 BRCA2−/− anti-proliferation assay
Method: as §1

Sequence of PARP2 (Q9UGN5 whole entry): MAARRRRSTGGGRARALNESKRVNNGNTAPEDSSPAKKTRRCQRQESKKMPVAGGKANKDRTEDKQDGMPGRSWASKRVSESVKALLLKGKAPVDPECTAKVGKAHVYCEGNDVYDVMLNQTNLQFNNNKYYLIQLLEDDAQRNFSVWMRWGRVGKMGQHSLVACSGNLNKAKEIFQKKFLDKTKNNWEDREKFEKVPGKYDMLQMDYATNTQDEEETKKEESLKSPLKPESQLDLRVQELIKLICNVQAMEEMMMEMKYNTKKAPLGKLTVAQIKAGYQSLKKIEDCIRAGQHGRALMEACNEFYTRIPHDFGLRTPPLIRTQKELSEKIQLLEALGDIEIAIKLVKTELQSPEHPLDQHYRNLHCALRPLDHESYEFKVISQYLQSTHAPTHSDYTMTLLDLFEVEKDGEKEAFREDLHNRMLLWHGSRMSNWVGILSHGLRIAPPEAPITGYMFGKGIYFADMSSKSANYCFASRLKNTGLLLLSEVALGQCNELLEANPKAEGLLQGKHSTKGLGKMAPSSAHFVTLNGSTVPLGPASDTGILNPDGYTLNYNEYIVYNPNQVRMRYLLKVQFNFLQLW

SMILES | IC50 (PARP2) [nM] | IC50 (PARP1) [nM] | IC50 (MDA-MB-436 cells) [nM] | IC50 (DLD1 BRCA2−/− cells) [nM]
CNC(=O)c1ccc(N2C[C@@H]3CN(Cc4cnc5c(c4)[nH]c(=O)c4cccn45)C[C@H]3C2)cn1 (racemic) [Compound 4] | 925 | 7.93 | 0.9 | 0.58
O=C(NC1CC1)c1ccc(N2C[C@@H]3CN(Cc4cnc5c6c(c(=O)[nH]c5c4)COCC6)C[C@H]3C2)c(F)n1 (stereo in doubt) [Compound 72] | 832 | 9.52 | 0.35 | 2.11
CCc1cc2ncc(CN3C[C@@H]4CN(c5ccc(C(=O)NC)nc5)C[C@H]4C3)cc2[nH]c1=O [Compound 15] | 1270 | 6.25 | 0.37 | 0.33
CCc1cc2ncc(CN3C[C@@H]4CN(c5ccc(C(=O)NC)nc5F)C[C@H]4C3)cc2[nH]c1=O [Compound 27] | 1100 | 7.52 | 0.23 | 0.22
CCc1cc2cnc(CN3C[C@@H]4CN(c5ccc(C(=O)NC)nc5)C[C@@H]4C3)cc2[nH]c1=O [Compound 39] |  | 9.74 | 1.39 | 1.22
CCc1cc2cnc(CN3C[C@@H]4CN(c5ccc(C(=O)NC)nc5F)C[C@H]4C3)cc2[nH]c1=O [Compound 40] | 4050 | 9.28 | 0.62 | 0.77
COCCNC(=O)c1ccc(N2C[C@H]3CN(Cc4cnc5c(c4)[nH]c(=O)c4cccn45)C[C@@H]3C2)cn1 [Compound 46] | 2440 | 8.21 | 1.66 | 3.01
CNC(=O)c1ccc(N2C[C@H]3CN(Cc4cnc5c6c(c(=O)[nH]c5c4)CCC6)C[C@@H]3C2)cn1 [Compound 47] |  | 9.42 | 1.1 | 0.77
CNC(=O)c1ccc(N2C[C@H]3CN(Cc4cnc5c6c(c(=O)[nH]c5c4)CCC6)C[C@@H]3C2)c(F)n1 [Compound 48] | 2050 | 12 | 0.74 | 1.02
COCCNC(=O)c1ccc(N2C[C@H]3CN(Cc4cnc5c6c(c(=O)[nH]c5c4)CCC6)C[C@@H]3C2)c(F)n1 [Compound 49] | 2110 | 9.61 | 1.03 | 2.16
O=C(N[C@@H]1CCOC1)c1ccc(N2C[C@H]3CN(Cc4cnc5c6c(c(=O)[nH]c5c4)CCC6)C[C@@H]3C2)c(F)n1 [Compound 50] |  | 7.86 | 1.05 | 4.04
O=C(N[C@H]1CCOC1)c1ccc(N2C[C@H]3CN(Cc4cnc5c6c(c(=O)[nH]c5c4)CCC6)C[C@@H]3C2)c(F)n1 [Compound 51] |  | 7.36 | 0.7 | 2.96
CNC(=O)c1ccc(N2C[C@H]3CN(Cc4cc5[nH]c(=O)c6c(c5cn4)CCC6)C[C@@H]3C2)c(F)n1 [Compound 54] | 7100 | 6.44 | 0.45 | 0.54
COCCNC(=O)c1ccc(N2C[C@H]3CN(Cc4cc5[nH]c(=O)c6c(c5cn4)CCC6)C[C@@H]3C2)c(F)n1 [Compound 55] |  | 6.96 | 1.24 | 4.66
O=C(N[C@@H]1CCOC1)c1ccc(N2C[C@H]3CN(Cc4cc5[nH]c(=O)c6c(c5cn4)CCC6)C[C@@H]3C2)c(F)n1 [Compound 56] |  | 5.17 | 0.71 | 3.37
O=C(N[C@H]1CCOC1)c1ccc(N2C[C@H]3CN(Cc4cc5[nH]c(=O)c6c(c5cn4)CCC6)C[C@@H]3C2)c(F)n1 [Compound 57] |  | 18.9 | 1.24 | 8.41
O=C(NC1CCOCC1)c1ccc(N2C[C@H]3CN(Cc4cc5[nH]c(=O)c6c(c5cn4)CCC6)C[C@@H]3C2)c(F)n1 [Compound 58] |  | 7.68 | 2.51 | 12.9

SMILES | IC50 (PARP2) [nM] | IC50 (PARP1) [nM] | IC50 (MDA-MB-436 cells) [nM] | IC50 (DLD1 BRCA2−/− cells) [nM]
O=C(NC1COC1)c1ccc(N2C[C@H]3CN(Cc4cc5[nH]c(=O)c6c(c5cn4)CCC6)C[C@@H]3C2)c(F)n1 [Compound 59] |  | 5.17 | 0.37 | 1.35
CNC(=O)c1ccc(N2C[C@H]3CN(Cc4ccc5c6c(c(=O)[nH]c5c4)COC6)C[C@@H]3C2)c(F)n1 [Compound 60] | 2470 | 8.17 | 1.04 | 1.6
O=C(NC1COC1)c1ccc(N2C[C@H]3CN(Cc4ccc5c6c(c(=O)[nH]c5c4)COC6)C[C@@H]3C2)c(F)n1 [Compound 61] |  | 9.14 | 1.35 | 7.97
CNC(=O)c1ccc(N2C[C@H]3CN(Cc4cnc5c6c(c(=O)[nH]c5c4)COC6)C[C@@H]3C2)c(F)n1 [Compound 62] |  | 7.82 | 1.53 | 5.86
CNC(=O)c1ccc(N2C[C@H]3CN(Cc4cc5[nH]c(=O)c6c(c5cn4)COC6)C[C@@H]3C2)c(F)n1 [Compound 63] |  | 101 | 7.29 | 141
O=C(NC1COC1)c1ccc(N2C[C@H]3CN(Cc4cnc5c(c4)[nH]c(=O)c4cccn45)C[C@@H]3C2)c(F)n1 [Compound 64] | 2900 | 8.01 | 0.24 | 0.55
CNC(=O)c1ccc(N2C[C@H]3CN(Cc4ccc5c6c(c(=O)[nH]c5c4)COCC6)C[C@@H]3C2)cn1 [Compound 65] | 334 | 6.22 | 0.36 | 0.63
CNC(=O)c1ccc(N2C[C@H]3CN(Cc4ccc5c6c(c(=O)[nH]c5c4)COCC6)C[C@@H]3C2)c(F)n1 [Compound 66] | 219 | 4.87 | 0.12 | 0.52
COCCNC(=O)c1ccc(N2C[C@H]3CN(Cc4ccc5c6c(c(=O)[nH]c5c4)COCC6)C[C@@H]3C2)c(F)n1 [Compound 67] |  | 10.4 | 0.64 | 2.16
COCCNC(=O)c1ccc(N2C[C@H]3CN(Cc4ccc5c6c(c(=O)[nH]c5c4)COCC6)C[C@@H]3C2)cn1 [Compound 68] |  | 14.6 | 0.6 | 12.3
CO[C@H]1C[C@H](NC(=O)c2ccc(N3C[C@H]4CN(Cc5cnc6c7c(c(=O)[nH]c6c5)COCC7)C[C@@H]4C3)c(F)n2)C1 [Compound 74] |  | 8.26 | 0.57 | 4.98
CO[C@H]1C[C@@H](NC(=O)c2ccc(N3C[C@H]4CN(Cc5cnc6c7c(c(=O)[nH]c6c5)COCC7)C[C@@H]4C3)cn2)C1 [Compound 75] |  | 8.6 | 0.93 | 10.2
CNC(=O)c1ccc(N2C[C@H]3CN(Cc4ccc5c6c(c(=O)[nH]c5c4)CCOC6)C[C@@H]3C2)cn1 [Compound 78] |  | 26.7 | 1.41 | 9.14
CNC(=O)c1ccc(N2C[C@H]3CN(Cc4cnc5c6c(c(=O)[nH]c5c4)OCCC6)C[C@@H]3C2)c(F)n1 [Compound 81] |  | 7.6 | 1.05 | 4.66
CNC(=O)c1ccc(N2C[C@H]3CN(Cc4ccc5c6c(c(=O)[nH]c5c4)OCCC6)C[C@@H]3C2)c(F)n1 [Compound 88] |  | 7.9 | 1.42 | 4.56
O=C(NC1COC1)c1ccc(N2C[C@H]3CN(Cc4ccc5c6c(c(=O)[nH]c5c4)OCCC6)C[C@@H]3C2)c(F)n1 [Compound 89] |  | 4.32 | 1.08 | 8.28
CO[C@H]1C[C@@H](NC(=O)c2ccc(N3C[C@H]4CN(Cc5ccc6c7c(c(=O)[nH]c6c5)OCCC7)C[C@@H]4C3)c(F)n2)C1 [Compound 90] |  | 5.16 | 1.74 | 8.3
